Organism: Rattus norvegicus
Test: Open TG-GATES - Regimen: Single
Type: toxicity, organism-based, Sprague-Dawley
Parameters: regimen Single, gender Male, age 6 weeks
Settings: in vivo, po, 0 mg/kg, route gavage, dose level Control; for APTT / Bas / Eos / Fbg / Hb / Ht / Lym / MCH / MCHC / MCV / Mono / Neu / PT / Plat / RBC / Ret / WBC: tissue Blood; for ALP / ALT / AST / BUN / CRE / DBIL / GLC / IP / K / Na / PL / RALB / TBIL / TC / TG / TP / gamma-GTP: tissue Plasma

## NS(=O)(=O)c1cc(C(=O)O)c(NCc2ccco2)cc1Cl [FUROSEMIDE]
3 h
  TERMINAL_BW: 205.5 g
  APTT: 15.8 s
  Bas: 0%
  Eos: 0.8%
  Fbg: 270 mg/dL
  Hb: 13.2 g/dL
  Ht: 39.9%
  Lym: 78.2%
  MCH: 21.5 pg
  MCHC: 33.2%
  MCV: 64.8 fL
  Mono: 2.8%
  Neu: 17.2%
  PT: 15.6 s
  Plat: 115.8 x10_4/uL
  RBC: 615.6 x10_4/ul
  Ret: 7.3%
  WBC: 70.5 x10_2/uL
  ALP: 1448.8 IU/L
  ALT: 40.4 IU/L
  AST: 76.2 IU/L
  BUN: 10.2 mg/dL
  CRE: 0.2 mg/dL
  DBIL: 0.01 mg/dL
  GLC: 172.8 mg/dL
  IP: 9 mg/dL
  K: 4 meq/L
  Na: 142.4 meq/L
  PL: 137.6 mg/dL
  RALB: 2.5 g/dL
  TBIL: 0.058 mg/dL
  TC: 72.2 mg/dL
  TG: 61.6 mg/dL
  TP: 5.4 g/dL
  gamma-GTP: 0.6 IU/L
6 h
  TERMINAL_BW: 207.5 g
  APTT: 16.5 s
  Bas: 0%
  Eos: 1.2%
  Fbg: 313.6 mg/dL
  Hb: 13.1 g/dL
  Ht: 39.4%
  Lym: 75.8%
  MCH: 21.2 pg
  MCHC: 33.1%
  MCV: 63.9 fL
  Mono: 2.8%
  Neu: 19.4%
  PT: 15.3 s
  Plat: 122.5 x10_4/uL
  RBC: 617.2 x10_4/ul
  Ret: 8%
  WBC: 72.8 x10_2/uL
  ALP: 1332.6 IU/L
  ALT: 39 IU/L
  AST: 70.6 IU/L
  BUN: 11 mg/dL
  CRE: 0.2 mg/dL
  DBIL: 0.012 mg/dL
  GLC: 173.8 mg/dL
  IP: 9.7 mg/dL
  K: 3.9 meq/L
  Na: 142.2 meq/L
  PL: 143.2 mg/dL
  RALB: 2.6 g/dL
  TBIL: 0.062 mg/dL
  TC: 80.4 mg/dL
  TG: 48.8 mg/dL
  TP: 5.5 g/dL
  gamma-GTP: 0.8 IU/L
9 h
  TERMINAL_BW: 206.6 g
  APTT: 19.4 s
  Bas: 0%
  Eos: 0.8%
  Fbg: 294.4 mg/dL
  Hb: 13 g/dL
  Ht: 39%
  Lym: 79.6%
  MCH: 20.7 pg
  MCHC: 33.2%
  MCV: 62.4 fL
  Mono: 2.2%
  Neu: 17%
  PT: 15.3 s
  Plat: 108.3 x10_4/uL
  RBC: 625.6 x10_4/ul
  Ret: 7.8%
  WBC: 70.5 x10_2/uL
  ALP: 1206 IU/L
  ALT: 40.8 IU/L
  AST: 68.2 IU/L
  BUN: 9 mg/dL
  CRE: 0.2 mg/dL
  DBIL: 0.01 mg/dL
  GLC: 182.8 mg/dL
  IP: 10.2 mg/dL
  K: 4 meq/L
  Na: 144.2 meq/L
  PL: 142 mg/dL
  RALB: 2.6 g/dL
  TBIL: 0.066 mg/dL
  TC: 79 mg/dL
  TG: 35.8 mg/dL
  TP: 5.6 g/dL
  gamma-GTP: 0.8 IU/L
24 h
  TERMINAL_BW: 222.4 g
  APTT: 16.2 s
  Bas: 0%
  Eos: 1%
  Fbg: 270.8 mg/dL
  Hb: 13.1 g/dL
  Ht: 39.3%
  Lym: 74.2%
  MCH: 21.3 pg
  MCHC: 33.3%
  MCV: 64.1 fL
  Mono: 3.2%
  Neu: 20.6%
  PT: 15.9 s
  Plat: 116.4 x10_4/uL
  RBC: 613.6 x10_4/ul
  Ret: 7.6%
  WBC: 104.1 x10_2/uL
  ALP: 1714.2 IU/L
  ALT: 47.4 IU/L
  AST: 73.4 IU/L
  BUN: 15.4 mg/dL
  CRE: 0.2 mg/dL
  DBIL: 0.014 mg/dL
  GLC: 182.4 mg/dL
  IP: 8.4 mg/dL
  K: 4.2 meq/L
  Na: 141.6 meq/L
  PL: 156 mg/dL
  RALB: 2.6 g/dL
  TBIL: 0.052 mg/dL
  TC: 81.6 mg/dL
  TG: 72.8 mg/dL
  TP: 5.7 g/dL
  gamma-GTP: 0.8 IU/L
